Experimental findings from patent publication US9334269B2, “Carboxamides as inhibitors of voltage-gated sodium channels” (AMGEN INC., priority 2010, dated 2016) are described below.

For the experiment, the target named is T1, human Nav1.7 (hNav1.7) (Homo sapiens, UniProt Q15858).
T1 construct: expressed in transfected cells
T1 sequence (Q15858 whole entry): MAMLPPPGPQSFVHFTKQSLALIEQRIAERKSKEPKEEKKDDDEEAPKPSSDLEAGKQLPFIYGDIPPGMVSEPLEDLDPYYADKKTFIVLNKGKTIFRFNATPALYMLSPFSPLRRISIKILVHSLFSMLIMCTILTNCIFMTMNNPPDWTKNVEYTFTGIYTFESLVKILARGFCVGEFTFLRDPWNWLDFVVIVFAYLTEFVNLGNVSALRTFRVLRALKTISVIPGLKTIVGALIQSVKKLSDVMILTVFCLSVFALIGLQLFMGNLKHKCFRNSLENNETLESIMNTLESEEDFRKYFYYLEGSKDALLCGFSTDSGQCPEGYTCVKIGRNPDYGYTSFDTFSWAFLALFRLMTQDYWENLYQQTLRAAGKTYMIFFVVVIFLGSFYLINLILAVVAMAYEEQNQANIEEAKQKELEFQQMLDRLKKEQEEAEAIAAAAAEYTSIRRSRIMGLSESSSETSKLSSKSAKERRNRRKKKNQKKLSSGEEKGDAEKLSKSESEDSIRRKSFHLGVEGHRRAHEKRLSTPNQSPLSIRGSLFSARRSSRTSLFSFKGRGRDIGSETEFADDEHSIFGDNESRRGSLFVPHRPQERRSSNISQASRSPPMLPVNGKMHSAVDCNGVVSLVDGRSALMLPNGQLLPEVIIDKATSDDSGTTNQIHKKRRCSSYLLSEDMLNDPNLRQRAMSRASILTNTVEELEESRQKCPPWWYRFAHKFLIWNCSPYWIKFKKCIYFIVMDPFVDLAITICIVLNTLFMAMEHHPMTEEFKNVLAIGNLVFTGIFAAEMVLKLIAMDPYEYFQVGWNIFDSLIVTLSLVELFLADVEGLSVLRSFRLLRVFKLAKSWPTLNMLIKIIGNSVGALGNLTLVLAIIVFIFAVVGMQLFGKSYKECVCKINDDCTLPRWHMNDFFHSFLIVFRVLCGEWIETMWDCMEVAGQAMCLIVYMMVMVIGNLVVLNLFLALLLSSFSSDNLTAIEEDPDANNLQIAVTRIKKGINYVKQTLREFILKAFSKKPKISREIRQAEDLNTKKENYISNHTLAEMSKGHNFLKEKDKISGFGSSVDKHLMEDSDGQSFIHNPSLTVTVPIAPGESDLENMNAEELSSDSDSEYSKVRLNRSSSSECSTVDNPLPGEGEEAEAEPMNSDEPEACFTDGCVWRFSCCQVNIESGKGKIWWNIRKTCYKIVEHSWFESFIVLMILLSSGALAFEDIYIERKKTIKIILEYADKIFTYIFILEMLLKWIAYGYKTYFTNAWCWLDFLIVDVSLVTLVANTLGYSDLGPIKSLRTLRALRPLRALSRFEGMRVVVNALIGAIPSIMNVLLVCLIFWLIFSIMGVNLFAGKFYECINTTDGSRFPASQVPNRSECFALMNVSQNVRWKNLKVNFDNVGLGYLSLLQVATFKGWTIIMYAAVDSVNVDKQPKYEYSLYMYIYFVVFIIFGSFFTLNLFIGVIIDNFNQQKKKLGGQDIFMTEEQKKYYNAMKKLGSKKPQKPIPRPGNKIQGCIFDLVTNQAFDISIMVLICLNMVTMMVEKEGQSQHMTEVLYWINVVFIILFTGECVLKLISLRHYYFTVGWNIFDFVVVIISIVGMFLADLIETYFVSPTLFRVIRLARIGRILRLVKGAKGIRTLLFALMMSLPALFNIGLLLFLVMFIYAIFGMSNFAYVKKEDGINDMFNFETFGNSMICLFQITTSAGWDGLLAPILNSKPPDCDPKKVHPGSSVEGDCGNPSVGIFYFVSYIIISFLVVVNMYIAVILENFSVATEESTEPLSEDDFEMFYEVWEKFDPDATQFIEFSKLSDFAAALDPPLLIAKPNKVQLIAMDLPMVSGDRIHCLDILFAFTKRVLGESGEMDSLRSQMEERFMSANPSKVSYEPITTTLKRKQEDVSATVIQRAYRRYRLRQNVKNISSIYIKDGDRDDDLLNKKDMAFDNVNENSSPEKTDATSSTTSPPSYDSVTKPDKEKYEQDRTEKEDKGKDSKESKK
In words: hNav1.7 whole-cell patch-clamp electrophysiology (automated PatchXpress 7000A or manual) in stably expressing 293 cells. Type of experiment: cell-based. As to conditions: human Nav1.7 stably expressed in 293 cells; whole-cell patch clamp; average IC50 from Hill fit. The gist of the method: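 Stably transfected 293 cells lacking endogenous sodium channels; peak current evoked by depolarizing pulses during increasing compound concentrations, automated at ~20% fractional inactivation, or manually at −140 mV (resting) and ~20% inactivation. Block taken at steady state, corrected for rundown; IC50 by Hill fit.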
A general note: In patch-clamp work, channel activity is measured electrically.
For orientation: IC50 means the concentration that gives 50% inhibition. A higher IC50 goes with lower potency. For the compound `CNC(=O)c1cccc(Nc2nccc(N3CC(COc4ccc(Cl)cc4)C3)n2)c1` [Example O, 3-((4-(3-((4-chlorophenoxy)methyl)-1-azetidinyl)-2-pyrimidinyl)amino)-N-methylbenzamide], the IC50 came to 2.55 µM.

`CNC(=O)c1cccc(Nc2ncnc(N3CC(Oc4ccc(Cl)cc4F)C3)n2)c1` [Example Q, 3-(4-(3-(4-chloro-2-fluorophenoxy)azetidin-1-yl)-1,3,5-triazin-2-ylamino)-N-methylbenzamide] registered an IC50 of 2.99 µM. The figure for `CCNC(=O)c1cccc(Nc2ncnc(N3CC(Oc4ccc(Cl)cc4F)C3)n2)c1` [Example R, 3-(4-(3-(4-chloro-2-fluorophenoxy)azetidin-1-yl)-1,3,5-triazin-2-ylamino)-N-ethylbenzamide] is 1.14 µM. The figure for `CNC(=O)c1cc(F)cc(Nc2ncnc(N3CC(Oc4ccc(Cl)cc4F)C3)n2)c1` [Example S, 3-(4-(3-(4-chloro-2-fluorophenoxy)azetidin-1-yl)-1,3,5-triazin-2-ylamino)-5-fluoro-N-methylbenzamide] is more than 30 µM; for `CNC(=O)c1cccc(Nc2cc(N3CC(Oc4ccc(Cl)cc4F)C3)ccn2)c1` [Example T, 3-(4-(3-(4-chloro-2-fluorophenoxy)azetidin-1-yl)pyridin-2-ylamino)-N-methylbenzamide] it is 4.5 µM; for `CNC(=O)c1cccc(Nc2nc(C)nc(N3CC(Oc4ccc(Cl)cc4F)C3)n2)c1` [Example U, 3-(4-(3-(4-chloro-2-fluorophenoxy)azetidin-1-yl)-6-methyl-1,3,5-triazin-2-ylamino)-N-methylbenzamide] it is more than 30 µM.

Take `CNC(=O)c1cccc(Nc2ccnc(N3CC(Oc4ccc(F)cc4)C3)c2)c1` [Example V, 3-((2-(3-(4-fluorophenoxy)-1-azetidinyl)-4-pyridinyl)amino)-N-methylbenzamide]: the IC50 came out at 5.78 µM. Compound `CNC(=O)c1cccc(Nc2cccc(N3CC(Oc4ccc(Cl)cc4F)C3)n2)c1` [Example W, 3-((6-(3-(4-chloro-2-fluorophenoxy)-1-azetidinyl)-2-pyridinyl)amino)-N-methylbenzamide] came in with an IC50 of 2.78 µM.

Compound `CNC(=O)c1cc(Nc2cccc(N3CC(Oc4ccc(Cl)cc4F)C3)n2)ccc1F` [Example X, 5-((6-(3-(4-chloro-2-fluorophenoxy)-1-azetidinyl)-2-pyridinyl)amino)-2-fluoro-N-methylbenzamide] showed an IC50 of 4.46 µM. The figure for `CNC(=O)c1cccc(Nc2cc(N3CC(Oc4ccc(Cl)cc4F)C3)ncn2)c1` [Example Z, 3-((6-(3-(4-chloro-2-fluorophenoxy)-1-azetidinyl)-4-pyrimidinyl)amino)-N-methylbenzamide] is 12.7 µM.
